Here are results for 3 compounds from article PMC5573420, “Correlation between human ether‐a‐go‐go‐related gene channel inhibition and action potential prolongation” (British Journal of Pharmacology, 2017).

Where “and” joins values, the source holds several entries; their conditions need not be identical. Identical values can stand only once. Entries after “also recorded” stand apart in the source; their conditions may differ.

For one data set, the target named is Nav1.5 (Homo sapiens, UniProt Q14524). The data set is described as follows: Sodium current inhibition in HEK cells stably expressing Nav1.5, planar patch clamp. Particulars: for Shift of Nav1.5 concentration-response curve towards lower concentrations: -80 mV versus -140 mV holding potential. The procedure: (§1) Currents were low‐pass filtered at 10 kHz using the internal Bessel filter and sampled at 25 kHz. The extracellular solution for hERG current recording contained 140 mM NaCl, 4 mM KCl, 2 mM CaCl2, 1 mM MgCl2,5 mM D‐glucose and 10 mM HEPES (pH 7.4) (Sigma‐Aldrich). The intracellular solution for hERG current recording contained 50 mM KCl, 10 mM NaCl, 60 mM KF, 20 mM EGTA and 10 mM HEPES (pH 7.2). The extracellular solution for measuring sodium currents in HEK cells stably expressing the human clone of Nav1.5 (GenBank M77235) contained 4 mM KCl, 20 mM NaCl, 1.8 mM CaCl2, 0.75 mM MgCl2, 5 mM HEPES, 120 mM choline chloride and pH 7.4 using NaOH. The intracellular solution for sodium current recording contained 120 mM CsF, 20 mM CsCl, 5 mM EGTA, 5 mM HEPES and pH 7.4 using CsOH. All chemicals were obtained from Sigma‐Aldrich Chemie GmbH (Taufkirchen, Germany). The compound solutions were applied by means of the automated NPC‐16 Patchliner planar patch‐clamp platform.

Another data set relates to hiPSC-CMs. Nature of the data set: Optical measurement of action potential duration (APD90) in hiPSC-CMs using voltage-sensitive dye di-4-ANEPPS. Particulars: for activity at 0.01 µM / activity at 0.1 µM / activity at 0.3 µM / activity at 1 µM / EC (50% APD prolongation): Homo sapiens; for activity at 0.01 µM / activity at 0.1 µM / activity at 0.3 µM / activity at 1 µM: 0.5 h, read-out: Changes in APD90 in hiPSC-CMs; for EC (50% APD prolongation): read-out: D150 (concentration that prolongs the AP by 50%), APD90 in hiPSC-CMs. The procedure:
The plates were then incubated at 37°C, 5% CO2. Forty‐eight hours post‐thaw, 100% of the plating medium was replaced with CDI Maintenance Medium (CDI, CMC‐100‐120‐001), and further, 100% media changes were performed every 2 days after that.
Afterwards, the medium containing VSD was replaced by fresh serum‐free medium, and the cells were returned to the incubator. The multi‐well plate was placed in an environmentally controlled stage incubator (37°C, 5% CO2, water‐saturated air atmosphere) (Okolab Inc, Burlingame, CA, USA) of the CelIOPTIQ platform (Clyde Biosciences Ltd, Glasgow, Scotland). The di‐4‐ANEPPS fluorescence signal was recorded from a 0.2 × 0.2 mm area using a 40× (NA 0.6) objective lens. Excitation wavelength was 470 ± 10 nm using a light‐emitting diode (LED), and emitted light was collected by two photomultipliers (PMTs) at 510–560 and 590–650 nm respectively. LED, PMT, associated power supplies and amplifiers were supplied by Cairn Research Ltd (Kent, UK). […] A 20 s recording was then taken 30 min after exposure to the drug or vehicle with only one concentration applied per well. The records were subsequently analysed offline using proprietary software (CellOPTIQ). The procedure was repeated from four to five times, and parallel matched control (vehicle) measurements were taken on cardiomyocytes with equivalent concentrations of vehicle (DMSO). AP parameters were measured, including APD at 50, 75 and 90% repolarization (APD50, APD75 and APD90 respectively). Data are given as % change from control for the treated groups (vehicle, control and drug). This allowed a single comparison to be made at each concentration, and every experiment was performed with its own set of controls (vehicle). No data were used more than once.

Another data set relates to hERG potassium channels. Particulars: read-out: Ki binding studies; radioligand binding; ref Shagufta et al 2009; cited from earlier work.
In a further data set the target is hERG channels (Homo sapiens, UniProt Q12809). Nature of the data set: hERG current inhibition, automated planar patch clamp in HEK293 cells stably expressing hERG. The method, then: as §1
hERG channels, sequence (Q12809 whole entry): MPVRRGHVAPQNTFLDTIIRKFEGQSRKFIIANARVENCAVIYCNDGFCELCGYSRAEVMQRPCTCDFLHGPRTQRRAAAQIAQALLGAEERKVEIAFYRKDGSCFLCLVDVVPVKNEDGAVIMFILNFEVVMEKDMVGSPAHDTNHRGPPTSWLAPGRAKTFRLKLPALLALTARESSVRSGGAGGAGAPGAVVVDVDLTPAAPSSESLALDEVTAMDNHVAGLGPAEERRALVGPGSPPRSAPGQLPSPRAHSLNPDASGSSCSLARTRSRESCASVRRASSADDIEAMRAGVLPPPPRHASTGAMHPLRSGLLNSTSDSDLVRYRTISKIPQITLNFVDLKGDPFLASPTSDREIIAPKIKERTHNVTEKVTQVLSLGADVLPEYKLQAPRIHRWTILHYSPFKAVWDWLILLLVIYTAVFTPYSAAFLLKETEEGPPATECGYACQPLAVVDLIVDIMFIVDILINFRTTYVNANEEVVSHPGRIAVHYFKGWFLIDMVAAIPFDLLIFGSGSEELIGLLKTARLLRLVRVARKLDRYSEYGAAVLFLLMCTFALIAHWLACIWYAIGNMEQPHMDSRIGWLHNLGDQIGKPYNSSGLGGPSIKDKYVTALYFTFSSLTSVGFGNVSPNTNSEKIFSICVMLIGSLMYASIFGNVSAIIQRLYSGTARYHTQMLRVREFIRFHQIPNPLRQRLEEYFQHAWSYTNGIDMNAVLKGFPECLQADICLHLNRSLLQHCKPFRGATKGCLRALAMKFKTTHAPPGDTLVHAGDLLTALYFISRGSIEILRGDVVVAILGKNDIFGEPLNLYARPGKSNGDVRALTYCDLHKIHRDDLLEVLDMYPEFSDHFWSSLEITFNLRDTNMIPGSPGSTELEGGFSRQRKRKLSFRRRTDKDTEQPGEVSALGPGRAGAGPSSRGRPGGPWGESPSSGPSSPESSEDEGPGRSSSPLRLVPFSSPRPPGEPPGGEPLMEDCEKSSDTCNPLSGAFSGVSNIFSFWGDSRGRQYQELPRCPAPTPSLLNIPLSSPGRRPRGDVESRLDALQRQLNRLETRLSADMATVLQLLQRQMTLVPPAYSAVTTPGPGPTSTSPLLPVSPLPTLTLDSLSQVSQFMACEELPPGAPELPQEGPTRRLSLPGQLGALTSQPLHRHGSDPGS
Data are presented as mean ± SEM for at least five cells from two different batches or for three independent measurements with HEK293 cells.
The concentration–inhibition relationships were analysed by plotting the normalized values of peak tail current versus peak tail steady current in the presence of the respective cumulatively applied compound concentrations (Figure 4B, C). Data points were fitted using Hill equation.
A general note: Block of hERG is tested as a sign of cardiac risk.

In data set [1] the target is Cav1.2 (rabbit α1-subunit with β2a and α2-δ1) (Oryctolagus cuniculus, UniProt P15381). Nature of the data set: Barium current (IBa) inhibition through Cav1.2 in transfected tsA-201 cells, manual patch clamp. The following applies: rabbit. The method, then: (§2) The transfection of tsA‐201 cells was performed using the FUGENE6 Transfection Reagent (Roche Diagonstics GmbH, Mannheim, Germany) following standard protocols. The tsA‐201 cells were used until passage number 15. […] The extracellular bath solution (in mM: BaCl2 20, MgCl2 1, HEPES 10, choline‐Cl 90) was titrated to pH 7.4 with methanesulfonic acid. […] The drugs were applied to cells under voltage clamp using a microminifold perfusion system. Ca^2+ channel block was estimated as peak IBa inhibition during a train of short (50 ms) test pulses from −80 mV at a frequency of 0.2 Hz. Patch clamp experiments to study hERG, Nav1.5 and Cav1.2 currents were performed at room temperature (22–25°C). All data were digitized and saved to disc. Current traces were filtered at 5 kHz and sampled at 10 kHz. The pClamp software package (Version 7.0 Axon Instruments, Inc.) was used for data acquisition and preliminary analysis. Microcal Origin 7.0 was used for analysis, and sigmoidal curves were fitted using the Hill equation.
Cav1.2 (rabbit α1-subunit with β2a and α2-δ1), sequence (P15381 whole entry, other chains not shown, the tested form may be a part): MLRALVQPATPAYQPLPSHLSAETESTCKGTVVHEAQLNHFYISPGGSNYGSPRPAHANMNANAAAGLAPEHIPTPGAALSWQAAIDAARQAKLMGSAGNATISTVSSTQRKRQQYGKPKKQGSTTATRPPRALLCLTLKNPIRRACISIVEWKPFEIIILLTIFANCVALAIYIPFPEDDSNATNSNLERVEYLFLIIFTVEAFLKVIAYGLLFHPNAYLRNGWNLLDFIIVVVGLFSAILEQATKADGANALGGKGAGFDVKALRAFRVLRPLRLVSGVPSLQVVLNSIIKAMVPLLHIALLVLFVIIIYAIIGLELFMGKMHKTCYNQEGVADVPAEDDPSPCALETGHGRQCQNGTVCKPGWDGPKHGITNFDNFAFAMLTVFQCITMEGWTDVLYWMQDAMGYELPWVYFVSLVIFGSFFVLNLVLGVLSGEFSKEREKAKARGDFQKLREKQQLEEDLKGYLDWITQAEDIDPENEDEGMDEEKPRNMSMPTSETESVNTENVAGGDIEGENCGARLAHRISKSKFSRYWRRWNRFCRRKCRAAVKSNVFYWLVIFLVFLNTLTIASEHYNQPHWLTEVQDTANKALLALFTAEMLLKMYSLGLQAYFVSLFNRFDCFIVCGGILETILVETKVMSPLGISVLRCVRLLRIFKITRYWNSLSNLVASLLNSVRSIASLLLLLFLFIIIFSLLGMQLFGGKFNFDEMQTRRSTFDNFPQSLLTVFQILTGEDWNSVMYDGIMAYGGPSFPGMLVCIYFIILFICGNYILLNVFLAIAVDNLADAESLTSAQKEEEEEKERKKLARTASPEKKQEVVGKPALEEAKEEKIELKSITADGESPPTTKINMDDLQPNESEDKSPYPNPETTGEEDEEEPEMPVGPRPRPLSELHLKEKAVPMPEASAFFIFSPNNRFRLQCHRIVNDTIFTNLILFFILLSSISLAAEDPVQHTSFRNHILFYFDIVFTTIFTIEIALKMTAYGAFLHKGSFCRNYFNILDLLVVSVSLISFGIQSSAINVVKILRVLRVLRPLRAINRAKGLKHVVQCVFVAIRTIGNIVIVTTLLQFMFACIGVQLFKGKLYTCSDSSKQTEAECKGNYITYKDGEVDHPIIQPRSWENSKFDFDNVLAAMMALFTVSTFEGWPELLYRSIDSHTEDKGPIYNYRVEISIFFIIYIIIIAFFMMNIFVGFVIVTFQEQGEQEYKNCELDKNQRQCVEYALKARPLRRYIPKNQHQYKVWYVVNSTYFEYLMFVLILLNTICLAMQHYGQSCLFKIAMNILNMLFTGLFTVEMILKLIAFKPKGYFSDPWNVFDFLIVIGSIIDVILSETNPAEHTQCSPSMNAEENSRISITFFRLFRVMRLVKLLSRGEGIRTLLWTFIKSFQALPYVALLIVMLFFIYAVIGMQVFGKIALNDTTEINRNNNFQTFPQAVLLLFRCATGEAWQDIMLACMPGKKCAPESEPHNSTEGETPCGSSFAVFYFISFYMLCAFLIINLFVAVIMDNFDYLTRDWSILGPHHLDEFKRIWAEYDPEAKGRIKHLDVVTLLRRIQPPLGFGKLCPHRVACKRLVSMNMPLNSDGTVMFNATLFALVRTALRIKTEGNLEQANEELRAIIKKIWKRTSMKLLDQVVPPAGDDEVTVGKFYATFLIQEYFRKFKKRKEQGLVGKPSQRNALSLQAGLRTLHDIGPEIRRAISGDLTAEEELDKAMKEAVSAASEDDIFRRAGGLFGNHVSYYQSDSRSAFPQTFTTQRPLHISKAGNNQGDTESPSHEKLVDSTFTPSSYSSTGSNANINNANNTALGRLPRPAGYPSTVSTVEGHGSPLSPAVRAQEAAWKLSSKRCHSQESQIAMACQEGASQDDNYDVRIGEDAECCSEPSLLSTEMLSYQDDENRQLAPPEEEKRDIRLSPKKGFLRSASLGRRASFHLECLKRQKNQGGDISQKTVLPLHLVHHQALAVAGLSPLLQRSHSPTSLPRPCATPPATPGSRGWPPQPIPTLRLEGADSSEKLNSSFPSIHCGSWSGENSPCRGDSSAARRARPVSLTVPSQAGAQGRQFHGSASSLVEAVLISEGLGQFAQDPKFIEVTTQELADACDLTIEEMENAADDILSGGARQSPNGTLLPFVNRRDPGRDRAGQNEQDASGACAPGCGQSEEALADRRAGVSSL
Cav1.2 (rabbit α1-subunit with β2a and α2-δ1), sequence (P13806 27-960 partner limits assumed, other chains not shown): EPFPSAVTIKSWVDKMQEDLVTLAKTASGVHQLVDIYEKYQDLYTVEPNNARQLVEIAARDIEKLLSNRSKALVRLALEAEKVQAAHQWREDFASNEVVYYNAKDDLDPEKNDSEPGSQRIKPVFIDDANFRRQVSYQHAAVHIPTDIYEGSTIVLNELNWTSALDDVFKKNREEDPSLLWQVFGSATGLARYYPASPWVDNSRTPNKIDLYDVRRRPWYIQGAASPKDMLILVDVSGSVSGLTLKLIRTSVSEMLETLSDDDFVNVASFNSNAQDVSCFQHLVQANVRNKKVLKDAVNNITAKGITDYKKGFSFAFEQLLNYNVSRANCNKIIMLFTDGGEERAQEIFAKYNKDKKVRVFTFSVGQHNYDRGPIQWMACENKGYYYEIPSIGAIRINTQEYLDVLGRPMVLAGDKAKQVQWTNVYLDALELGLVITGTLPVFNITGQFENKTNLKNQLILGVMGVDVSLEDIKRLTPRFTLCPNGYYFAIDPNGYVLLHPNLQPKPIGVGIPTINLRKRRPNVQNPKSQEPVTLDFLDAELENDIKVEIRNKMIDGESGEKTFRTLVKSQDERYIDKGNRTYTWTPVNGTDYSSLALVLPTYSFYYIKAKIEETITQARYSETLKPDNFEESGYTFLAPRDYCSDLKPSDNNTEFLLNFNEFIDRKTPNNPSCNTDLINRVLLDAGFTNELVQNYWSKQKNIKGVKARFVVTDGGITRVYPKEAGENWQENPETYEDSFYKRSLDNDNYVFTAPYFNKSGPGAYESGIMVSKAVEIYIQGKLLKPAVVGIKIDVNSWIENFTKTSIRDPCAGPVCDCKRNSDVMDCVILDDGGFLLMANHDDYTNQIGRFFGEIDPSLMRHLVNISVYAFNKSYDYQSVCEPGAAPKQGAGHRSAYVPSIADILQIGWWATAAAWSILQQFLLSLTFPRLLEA
Cav1.2 (rabbit α1-subunit with β2a and α2-δ1), sequence (P13806 961-1106 partner limits assumed, other chains not shown): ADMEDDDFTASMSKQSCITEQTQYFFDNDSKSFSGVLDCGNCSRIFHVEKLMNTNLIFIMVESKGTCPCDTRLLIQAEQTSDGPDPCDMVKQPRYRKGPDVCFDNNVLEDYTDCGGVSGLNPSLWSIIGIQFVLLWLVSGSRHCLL
(§3) Use‐dependent channel inhibition was studied during trains of 1 Hz and 50 ms test pulses (from −80 to +10 mV). After the application of 20 test pulses in control (absence of drug), the cells were incubated for 3 min with drug at rest. Peak current inhibition during the first pulse (1st, Figure 6C) in the presence of the drug reflects ‘resting state’ block. Additional current inhibition during a subsequently applied pulse train illustrates use‐dependent block. Peak current inhibition in control and drug are compared in Figure 6D.
A general note: Patch clamp records ionic current or voltage across a cell membrane.

The target in data set [2] is rabbit CaV1.2 α1-subunit with β2a and α2-δ1 (Oryctolagus cuniculus, UniProt P15381). The data set is described as above. The following applies: for Peak current decay after 20 pulses at 1 Hz (use-dependent block): 50 ms pulses from -80 to +10 mV, control 12 ± 2%; for Resting state and use-dependent block of Cav1.2: 1 Hz trains of 50 ms pulses after 3 min incubation at rest; for Cav1.2 IC50 (peak IBa inhibition): rabbit, pH 7.4. The method, then: as §2, §3
rabbit CaV1.2 α1-subunit with β2a and α2-δ1, sequence (P15381 whole entry, other chains not shown): as the sequence (P15381 whole entry, other chains not shown, the tested form may be a part) above
rabbit CaV1.2 α1-subunit with β2a and α2-δ1, sequence (P13806 27-960 partner limits assumed, other chains not shown): as the sequence (P13806 27-960 partner limits assumed, other chains not shown) above
rabbit CaV1.2 α1-subunit with β2a and α2-δ1, sequence (P13806 961-1106 partner limits assumed, other chains not shown): as the sequence (P13806 961-1106 partner limits assumed, other chains not shown) above

Where [3] appears, read: Nav1.5 IC50 (peak INa inhibition), holding potential -80 mV.
Where [4] appears, read: Nav1.5 IC50 (peak INa inhibition), holding potential -140 mV, 0.2 Hz.
[5] abbreviates: pH 7.4, Cav1.2 IC50 (peak IBa inhibition).

For orientation: IC50 means the concentration at which inhibition is half-maximal. High values mean weaker potency, low ones greater potency. As usually defined, the Ki is the equilibrium dissociation constant of an inhibitor or competing ligand from its target. Take `COc1ccc(OCCN(C)CCc2ccccc2)cc1` [Dofe42]: on Nav1.5, the “Shift of Nav1.5 concentration-response curve towards lower concentrations” value is on record as 5.6 fold. The same compound showed a 50% inhibitory concentration (IC50) against Nav1.5 (setting [3]) of 13.8 ± 1.9 µM. Besides, the IC50 against Nav1.5 (setting [4]) was found to be 77.9 ± 9.7 µM. In addition, in the data set with hiPSC-CMs, the activity at 0.01 µM came to 113%, the activity at 0.1 µM is 92%, the activity at 0.3 µM amounted to 95% and the activity at 1 µM was 98%. Moreover, the EC (50% APD prolongation) in the data set on hiPSC-CMs is over 0.6 µM. Also, the “Effect on APD90 / AP prolongation (in words)” value in the data set with hiPSC-CMs (hiPSC-CMs) was “did not affect APD90 even at 1 μM; also recorded: did not induce prolongation of AP”. Besides, in the data set on hERG potassium channels, the inhibitory constant (Ki) is 0.0033 ± 0.002 µM. The 50% inhibitory concentration (IC50) against hERG channels is 0.213 ± 0.0835 µM. Further, in data set [1] (pH 7.4, Cav1.2 IC50 (peak IBa inhibition), 0.2 Hz, 50 ms pulses from -80 to +10 mV), the IC50 was 38 ± 9.3 µM. For the same compound, the “Peak current decay after 20 pulses at 1 Hz (use-dependent block)” value in data set [2] (100 μM) is listed as 38 ± 2%. Also, the “Resting state and use-dependent block of Cav1.2” value in data set [2] was “pronounced resting state block and additional use‐dependent block”.

As to `CN(CCOc1ccc(Cl)c(Cl)c1)CCc1ccccc1` [Dofe44], at Nav1.5, the “Shift of Nav1.5 concentration-response curve towards lower concentrations” value is “fivefold”. Also, the concentration for half-maximal inhibition (IC50) against Nav1.5 (setting [3]) was determined as 4.7 ± 2 µM. At Nav1.5 (setting [4]), this compound showed a concentration for half-maximal inhibition (IC50) of 23.3 ± 1.9 µM. For the same compound, in the data set on hiPSC-CMs, the activity at 0.01 µM is 90%, the activity at 0.1 µM was found to be 83%, the activity at 0.3 µM was determined as 87% and the activity at 1 µM was 92%. For the same compound, the EC (50% APD prolongation) with hiPSC-CMs was over 0.6 µM. Further, the “Effect on APD90 / AP prolongation (in words)” value in the data set on hiPSC-CMs (hiPSC-CMs) is “did not affect APD90 even at 1 μM; also recorded: did not induce prolongation of AP”. For the same compound, the Ki in the data set with hERG potassium channels was 0.0024 ± 0.0022 µM. Besides, the concentration for half-maximal inhibition (IC50) at hERG channels worked out at 0.0381 ± 0.0126 µM. For the same compound, the IC50 in data set [1] (setting [5]) is over 100 µM. For the same compound, in data set [2], the “Resting state and use-dependent block of Cav1.2” value is given as “No use‐dependent block”; the “Cav1.2 IC50 (peak IBa inhibition)” value is over 200 µM.

For the compound `CN(CCOc1ccc([N+](=O)[O-])cc1)CCc1ccccc1` [Dofe45], at Nav1.5 (setting [4]), the concentration for half-maximal inhibition (IC50) is 69.7 ± 1 µM. In addition, the IC50 at Nav1.5 (Nav1.5 IC50 used for AP simulation, value entered in in silico hiPSC-CM AP model (Figure 8C)) is 8.9 µM and 10 µM. Further, the IC50 on Nav1.5 (human, pH 7.4, Nav1.5 IC50 (peak INa inhibition)) stood at 6.4 ± 1 µM. Besides, in the data set on hiPSC-CMs, the activity at 0.01 µM came to 71%, the activity at 0.1 µM amounted to 89%, the activity at 0.3 µM is 95% and the activity at 1 µM is 215%. For the same compound, the EC (50% APD prolongation) in the data set on hiPSC-CMs was 0.538 µM. Further, in the data set on hiPSC-CMs (hiPSC-CMs), the “Effect on APD90 / AP prolongation (in words)” value is on record as “only slightly prolonged the AP; also recorded: slightly prolonged the AP at high concentrations” and the “Incidence of EADs” value is “without (if any) incidence of EADs”. The compound further had an IC50 in data set [1] (setting [5]) of 0.19 ± 0.003 µM. For the same compound, it took 0.2 µM to reach half-maximal inhibition in data set [1] (pH 7.4, Cav1.2 IC50 used for AP simulation) (IC50). Further, the “Peak current decay after 20 pulses at 1 Hz (use-dependent block)” value in data set [2] (100 nM) came out at 42 ± 6%. In addition, in data set [2], the “Resting state and use-dependent block of Cav1.2” value was “pronounced resting state block and additional use‐dependent block”; the “Cav1.2 IC50 (peak IBa inhibition)” value was determined as 0.192 ± 0.028 µM.
